In article PMC6259277, “Synthesis, Gastroprotective Effect and Cytotoxicity of New Amino Acid Diterpene Monoamides and Diamides” (Molecules, 2010):

Columns and labels:
[1] = Cytotoxicity, neutral red uptake assay, Hep G2; format: cell-based; conditions: human, Hep G2 cells, confluent monolayers, confluent cultures, 0-1000 µM, mean ± SD
Protocol: (§1) Human normal lung fibroblasts MRC-5 (ATCC CCL-171) and Hep G2 cells (ATCC HB-8065) were grown as monolayers in minimum essential Eagle´s medium (MEM), with Earle's salts, 2.0 mM L-glutamine (Sigma Chemical Co.) and 2.0 g/L sodium bicarbonate (Sigma Chemical Co.), supplemented with 10% heat-inactivated fetal bovine serum (FBS), 100 IU/mL penicillin and 100 µg/mL streptomycin in a humidified incubator with 5% CO2 in air at 37 °C. Cell passage was maintained between 10 and 16 for MRC-5 and between 79 and 82 for Hep G2 cells. The medium was changed every 2 days. Culture media, antibiotics and FBS were obtained from Invitrogen Corp.
(§2) Confluent cultures of MRC-5, AGS and Hep G2 cells were treated with medium containing the compounds at concentrations ranging from 0 up to 1000 µM. The products were first dissolved in DMSO and then in the corresponding culture medium supplemented with 2% FBS. The final content of DMSO in the test medium and controls was 1%. Cells were exposed for 24 h to the assayed compounds. Untreated cells served as controls. Each concentration was tested in quadruplicate together with the control and repeated three times in separate experiments. At the end of the incubation, the neutral red uptake (NRU) assay was carried out to determine cell viability. To calculate the IC50 values (concentration that produces a 50% inhibitory effect on the evaluated parameter) the results were transformed to percentage of controls and the IC50 value was graphically obtained from the dose-response curves.

[2] = tested on: ethanol/HCl-induced gastric lesions; assay: Ethanol/HCl-induced gastric lesion (ulcer) model in mice; format: in vivo; conditions: for Gastroprotective effect: Lesion index: mean ± SD
Protocol: The gastroprotective activity of the compounds was determined in the ethanol/HCl-induced lesion model in mice. The purity of the tested compounds was higher than 95% by NMR analysis. Male Swiss albino mice weighing 30 ± 3 g were used. Animals were fed on certified Champion diet with free access to water under standard conditions of 12 h dark-light period, 50% relative humidity and 22 °C room temperature. Mice were randomly distributed into groups of eight animals each and fasted for 24 h with free access to water previous to the experiment. Fasting prior to ulcerogenic assays was used because 0.2 mL of the reference antisecretory drug lansoprazole (2-[[[3-methyl-4-(2,2,2-trifluroethoxy)-2-pyridyl]methyl]sulfinyl]benzimidazole) and the amides were administered orally. To keep the animal number to a minimum, dose-response studies were performed with the leucine derivatives 13 and 18 to set the conditions for single-dose comparison of gastroprotective effect. For the selected parent compounds, three doses were used: 25, 50 and 100 mg/kg. Fifty min after oral administration of the compounds, lansoprazole (20 mg/kg) or the vehicle (12% Tween 80, 10 mL/kg), all groups were orally treated with 0.2 mL of a solution containing 60% ethanol/0.3 M HCl (ethanol/HCl) for gastric lesion induction. Animals were sacrificed by cervical dislocation 1 h after the administration of ethanol/HCl, and the stomachs excised and inflated by injection of 5% formalin (1 mL). The ulcerated stomachs were fixed in 5% formalin for 30 min and opened along the greater curvature. The length (mm) of each lesion was measured, and the lesion index expressed as the sum of the length of all lesions. For comparison purposes, the products 1-5, 7-12, 14-16, 19 and 20 were assessed at a single oral dose of 25 mg/kg. The protocols were approved by the Universidad de Talca Institutional Animal Care and Use Committee, which follows the recommendations of the Canadian Council on Animal Care. Tween 80 and lansoprazole (> 98% purity by HPLC) were purchased from Sigma Chemical Co.
Results were expressed as the mean ± SD. In all experiments, statistical differences between several treatments and their respective control were determined by one-way analysis of variance (ANOVA) and when the F value was significant, post hoc differences were determined by the Dunnett's multiple comparison test. The level of significance was set at P < 0.05. All statistical analyses were performed using the software Statistica 5.1 (StatSoft, Inc.) and Statistical Package S-Plus 2000.

[3] = Cytotoxicity, neutral red uptake assay, MRC-5; format: cell-based; conditions: human, MRC-5 normal lung fibroblasts, confluent monolayers, confluent cultures, 0-1000 µM, mean ± SD
Protocol: as §1, §2

[4] = Cytotoxicity, neutral red uptake assay, AGS; format: cell-based; conditions: human, AGS gastric adenocarcinoma cells, confluent monolayers, confluent cultures, 0-1000 µM, mean ± SD
Protocol: as §2, with “Human gastric adenocarcinoma cells AGS (ATCC CRL-1739) were grown as monolayers in Ham F-12 medium containing 1.0 mM L-glutamine and 1.5 g/L sodium bicarbonate, supplemented with 10% heat-inactivated FBS, 100 IU/mL penicillin and 100 µg/mL streptomycin in a humidified incubator with 5% CO2 in air at 37 °C. The cell passage was maintained between 42 and 48. The medium was changed every 2 days. Confluent” for “Confluent”

[5] = Mus musculus, po, single oral dose 25 mg/kg, compared with untreated controls, read-out: Gastroprotective effect: % Lesion reduction
[6] = single oral dose 25 mg/kg, sum of lesion lengths

Row | SMILES | IC50 at 24 h [1] [µM] | inhibition in vivo at 25 mg/kg [2, 5] [%] | gastric lesion reduction at the higher doses ([2]; dose-response study, higher oral doses (50 and 100 mg/kg)) | Gastroprotective effect: Lesion index ([2]; single oral dose 25 mg/kg, sum of lesion lengths, 25 mg/kg) [mm] | IC50 at 24 h [3] [µM] | IC50 at 24 h [4] [µM] | Gastroprotective effect: Lesion index [2, 6] [mm] | inhibition in vivo at 20 mg/kg ([2]; Mus musculus, po, reference drug at 20 mg/kg oral, compared with untreated controls, read-out: Gastroprotective effect: % Lesion reduction) [%] | Gastroprotective effect: Lesion index ([2]; reference drug at 20 mg/kg oral, 20 mg/kg) [mm] | Gastroprotective effect: Lesion index ([2]; reference drug at 20 mg/kg oral, listed as lansoprazole, 20 mg/kg) [mm]
1 | C=C1CCC2[C@](C)(CCC[C@]2(C)C(=O)N[C@@H](CC(C)C)C(=O)OC)[C@H]1CC[C@@H](C)CC(=O)N[C@@H](CC(C)C)C(=O)OC (stereo partly shown) [Compound 18, Labd-8(17)-en-15,19-dioic acid, 15,19-dileucyl methyl ester amide] | > 1000 | ~49.6 | 79-89% | 23.2 ± 12.9 | 495 ± 35 | > 1000 |  |  |  | 
2 | C=C1CCC2[C@](C)(CCC[C@]2(C)C(=O)N2CCC[C@H]2C(=O)OC)[C@H]1CC[C@@H](C)CC(=O)N1CCC[C@H]1C(=O)OC (stereo partly shown) [Compound 19, Labd-8(17)-en-15,19-dioic acid, 15,19-diprolyl methyl ester amide] | 316 ± 16 | 87.8 |  |  | 267 ± 14 | 206 ± 10 | 5.6 ± 3.2 |  |  | 
3 | C=C1CCC2[C@](C)(CCC[C@]2(C)C(=O)N[C@@H](Cc2c[nH]c3ccccc23)C(=O)OCC)[C@H]1CC[C@@H](C)CC(=O)N[C@@H](Cc1c[nH]c2ccccc12)C(=O)OCC (stereo partly shown) [Compound 20, Labd-8(17)-en-15,19-dioic acid, 15,19-ditryptophanyl ethyl ester amide] | > 1000 | 68.9 |  |  | > 1000 | > 1000 | 14.3 ± 10.7 |  |  | 
4 | Cc1c(OCC(F)(F)F)ccnc1C[S+]([O-])c1nc2ccccc2[nH]1 (stereo not shown) [Lansoprazole, 2-[[[3-methyl-4-(2,2,2-trifluroethoxy)-2-pyridyl]methyl]sulfinyl]benzimidazole, reference compound] | 221 ± 9 |  |  |  | 306 ± 11 | 162 ± 6 |  | 79.3 | 9.5 ± 2.5 | 9.5 ± 2.5
